Data taken from paper PMC4556614 (PLoS ONE, 2015).
Where two headings read alike, the source gives them in different places.

Assays:
OCT2 [1] = target: T1, OCT2 (Homo sapiens, UniProt O15244); experiment: in vitro
OCT2 [2] = target: T1, OCT2; experiment: Inhibition of OCT2-mediated [3H]MPP+ uptake in HEK-OCT2 cells
[3] = coadministration of lansoprazole; cited from earlier work
[4] = ref 16 (Regenthal et al.), cited from earlier work; for Cmax,u: Cmax of unbound drug in humans; for Cmax: maximum steady-state plasma concentration in humans
[5] = test drug 20 µM, MPP+ 50 μM, 3 min, net uptake HEK-OCT2 minus HEK-VC
[6] = test drug 200 µM, MPP+ 50 μM, 3 min, net uptake HEK-OCT2 minus HEK-VC
[7] = human, pH 7.3, probe [14C]metformin, 1000 µM, % Inhibition of OCT2-dependent MF uptake at 20 µM (mean ± SEM), test drug 20 µM, metformin 1000 μM, 3 min, net uptake HEK-OCT2 minus HEK-VC
[8] = human, pH 7.3, probe [14C]metformin, 1000 µM, % Inhibition of OCT2-dependent MF uptake at 200 µM (mean ± SEM), test drug 200 µM, metformin 1000 μM, 3 min, net uptake HEK-OCT2 minus HEK-VC
[9] = human, pH 7.3, probe [3H]MPP+, 50 µM

T1 sequence (O15244 whole entry): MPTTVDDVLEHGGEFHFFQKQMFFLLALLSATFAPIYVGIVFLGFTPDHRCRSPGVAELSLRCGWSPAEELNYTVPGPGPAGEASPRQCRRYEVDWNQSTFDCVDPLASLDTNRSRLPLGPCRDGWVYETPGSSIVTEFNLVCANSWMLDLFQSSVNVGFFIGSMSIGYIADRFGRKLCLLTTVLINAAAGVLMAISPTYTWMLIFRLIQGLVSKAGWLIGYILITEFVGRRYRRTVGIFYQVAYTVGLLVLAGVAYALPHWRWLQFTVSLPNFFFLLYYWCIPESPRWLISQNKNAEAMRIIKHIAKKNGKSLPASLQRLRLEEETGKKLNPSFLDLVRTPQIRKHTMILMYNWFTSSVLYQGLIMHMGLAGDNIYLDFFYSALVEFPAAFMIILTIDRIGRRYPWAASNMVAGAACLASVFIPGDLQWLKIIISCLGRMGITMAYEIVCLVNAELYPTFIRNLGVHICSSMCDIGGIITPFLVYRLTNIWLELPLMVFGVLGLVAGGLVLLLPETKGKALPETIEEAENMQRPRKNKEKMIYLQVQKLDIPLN

Structure (SMILES)	% Inhibition of OCT2-dependent MF uptake at 20 µM (mean ± SEM) (OCT2 [1]; human, pH 7.3)	% Inhibition of OCT2-dependent MF uptake at 200 µM (mean ± SEM) (OCT2 [1]; human, pH 7.3)	% Inhibition of OCT2-dependent MPP+ uptake at 20 µM (mean ± SEM) (OCT2 [2]; [5]) [%]	% Inhibition of OCT2-dependent MPP+ uptake at 200 µM (mean ± SEM) (OCT2 [2]; [6]) [%]	further results
Cc1c(OCC(F)(F)F)ccnc1C[S+]([O-])c1nc2ccccc2[nH]1 (stereo not drawn) [Lansoprazole]	87.7 ± 1.6	103.0 ± 2.7	22.1 ± 5.3	90.1 ± 1.8	IC50 (OCT2 [1]; human, pH 7.3): 3.28 µM; IC50 values, OCT2-mediated metformin transport (in words) (OCT2 [1]; potent inhibitors, confirmed previous findings [19]-[21]): low micromolar range; Decrease of metformin renal clearance [3]: 13%; Increase of AUC of metformin [3]: 17%; Increase of Cmax of metformin [3]: 15%; Cmax,u [4]: 1200 nM; Cmax [4]: 6000 nM
Cc1ccc(-c2nc3ccc(C)cn3c2CC(=O)N(C)C)cc1 [Zolpidem]	–	99.1 ± 0.5	–	–	IC50 (OCT2 [1]; human, pH 7.3): 0.15 µM; % Inhibition of OCT2-dependent MPP+ uptake at 20 µM (mean ± SEM) (OCT2 [2]; human, pH 7.3): 36.5 ± 4.3; % Inhibition of OCT2-dependent MPP+ uptake at 200 µM (mean ± SEM) (OCT2 [2]; human, pH 7.3): 90.7 ± 8.2; Cmax,u [4]: 50 nM; Cmax [4]: 650 nM
CN(C)CCC[C@@]1(c2ccc(F)cc2)OCc2cc(C#N)ccc21 [Escitalopram]	62.6 ± 9.2	93.8 ± 3.6	-26.3 ± 7.9	26.0 ± 10.1	–
CC(CN1c2ccccc2Sc2ccccc21)N(C)C (stereo not drawn) [Promethazine]	83.7 ± 3.3	100.7 ± 1.3	5.7 ± 3.8	76.0 ± 3.0	–
C=C1CC[C@H](O)C/C1=C/C=C1\CCC[C@]2(C)[C@@H]([C@H](C)CCCC(C)C)CC[C@@H]12 [Cholecalciferol]	2.8 ± 15.7	17.1 ± 5.0	6.8 ± 5.1	10.4 ± 6.1	–
CC1(C)S[C@@H]2[C@H](NC(=O)[C@H](N)c3ccc(O)cc3)C(=O)N2[C@H]1C(=O)O [Amoxicillin]	3.2 ± 6.6%	4.5 ± 5.1%	-21.0 ± 11.1	-13.5 ± 14.5	–
CCN(CC)CCNC(=O)c1cc(Cl)c(N)cc1OC [Metoclopramide]	74.7 ± 8.5	93.9 ± 0.6	24.5 ± 2.9	66.6 ± 8.4	–
NC(=O)C1(N2CCCCC2)CCN(CCCC(=O)c2ccc(F)cc2)CC1 [Pipamperone]	33.9 ± 6.0	78.1 ± 2.2	12.0 ± 4.5	33.1 ± 3.4	–
Cc1ccc(-c2ncc(Cl)cc2-c2ccc(S(C)(=O)=O)cc2)cn1 [Etoricoxib]	64.1 ± 6.8	99.2 ± 2.7	2.3 ± 4.0	72.4 ± 2.2	–
C#C[C@]1(O)CC[C@H]2[C@@H]3CCC4=CC(=O)CC[C@@H]4[C@H]3CC[C@@]21C [Norethindrone]	41.0 ± 11.0	87.7 ± 6.1	-29.4 ± 6.4	3.0 ± 3.3	–
CC(=O)S[C@@H]1CC2=CC(=O)CC[C@]2(C)[C@H]2CC[C@@]3(C)[C@@H](CC[C@@]34CCC(=O)O4)[C@H]12 [Spironolactone]	–	98.4 ± 1.0	33.5 ± 4.7	95.0 ± 0.5	Cmax,u / IC50 (OCT2 [1]): 0.02; IC50 (OCT2 [1]; human, pH 7.3): 1.29 µM; Cmax,u [4]: 20 nM; Cmax [4]: 1200 nM
COc1nc(C)nc(Cl)c1N=C1NCCN1 [Moxonidine]	–	–	–	–	inhibition at 3 min, 20 µM (OCT2 [1]; [7]): 58.1 ± 14.5%; inhibition at 3 min, 200 µM (OCT2 [1]; [8]): 86.1 ± 2.9%; inhibition at 3 min, 20 µM (OCT2 [2]; [9]): 16.3 ± 6.5%; inhibition at 3 min, 200 µM (OCT2 [2]; [9]): 23.1 ± 7.1%
CC(C)C[C@H](CN)CC(=O)O [Pregabalin]	-1.3 ± 9.0	27.2 ± 5.9	–	–	% Inhibition of OCT2-dependent MPP+ uptake at 20 µM (mean ± SEM) (OCT2 [2]; human, pH 7.3): -29.6 ± 7.5; % Inhibition of OCT2-dependent MPP+ uptake at 200 µM (mean ± SEM) (OCT2 [2]; human, pH 7.3): -15.8 ± 5.2
CCC1=C(C)CN(C(=O)NCCc2ccc(S(=O)(=O)NC(=O)N[C@H]3CC[C@H](C)CC3)cc2)C1=O [Glimepiride]	66.8 ± 2.9	65.6 ± 4.6	31.1 ± 7.6	53.8 ± 15.2	–
NC(=O)N1c2ccccc2C=Cc2ccccc21 [Carbamazepine]	0.2 ± 3.8%	83.8 ± 1.2%	-51.4 ± 9.2	-2.1 ± 4.4	–
CCOC(=O)[N-]c1cn(N2CCOCC2)n[o+]1 [Molsidomine]	41.4 ± 3.6	69.5 ± 1.7	-1.7 ± 8.3	3.8 ± 4.9	–
CN1CCN(C2=Nc3cc(Cl)ccc3Nc3ccccc32)CC1 [Clozapine]	71.4 ± 1.6	98.7 ± 0.7	43.4 ± 4.7	84.1 ± 2.5	–
CNCCC(Oc1ccc(C(F)(F)F)cc1)c1ccccc1 (stereo not drawn) [Fluoxetine]	79.0 ± 0.9	98.5 ± 1.2	20.2 ± 3.5	91.8 ± 2.9	–
N[C@@H](Cc1cc(I)c(Oc2cc(I)c(O)c(I)c2)c(I)c1)C(=O)O [Levothyroxine]	–	–	–	–	inhibition at 3 min, 20 µM (OCT2 [1]; [7]): 0.8 ± 9.6%; inhibition at 3 min, 200 µM (OCT2 [1]; [8]): 14.3 ± 15.2%; inhibition at 3 min, 20 µM (OCT2 [2]; [9]): 3.6 ± 4.1%; inhibition at 3 min, 200 µM (OCT2 [2]; [9]): -3.3 ± 10.3%
O=[N+]([O-])O[C@H]1CO[C@H]2[C@@H]1OC[C@H]2O[N+](=O)[O-] [Isosorbide dinitrate]	–	–	–	–	inhibition at 3 min, 20 µM (OCT2 [1]; human, pH 7.3): -19.5 ± 6.9%; inhibition at 3 min, 200 µM (OCT2 [1]; human, pH 7.3): 21.7 ± 4.4%; inhibition at 3 min, 20 µM (OCT2 [2]; human, pH 7.3): -20.4 ± 5%; inhibition at 3 min, 200 µM (OCT2 [2]; human, pH 7.3): -82.4 ± 8%
CC(C)Cc1ccc(C(C)C(=O)O)cc1 (stereo not drawn) [Ibuprofen]	23.4 ± 6.7	29.6 ± 4.1	-5.8 ± 8.0	-0.3 ± 7.5	–
CN1C(=O)CN=C(c2ccccc2F)c2cc([N+](=O)[O-])ccc21 [Flunitrazepam]	74.1 ± 3.1	92.9 ± 0.9	5.1 ± 8.4	57.5 ± 6.6	–
OCCN1CCN(CCCN2c3ccccc3C=Cc3ccccc32)CC1 [Opipramol]	–	99.5 ± 0.7	14.0 ± 7.6	81.6 ± 3.9	–
CN(Cc1cnc2nc(N)nc(N)c2n1)c1ccc(C(=O)N[C@@H](CCC(=O)O)C(=O)O)cc1 [Methotrexate]	-1.1 ± 11.4	-5.8 ± 13.0	-19.0 ± 7.2	-9.5 ± 3.0	–
Nc1ccc(O)c(C(=O)O)c1 [Mesalazine]	21.6 ± 11.1	59.8 ± 6.7	-51.3 ± 6.1	-68.0 ± 8.5	–
NCC1(CC(=O)O)CCCCC1 [Gabapentin]	9.1 ± 8.2	37.6 ± 4.2	–	–	% Inhibition of OCT2-dependent MPP+ uptake at 20 µM (mean ± SEM) (OCT2 [2]; human, pH 7.3): -8.4 ± 9.6; % Inhibition of OCT2-dependent MPP+ uptake at 200 µM (mean ± SEM) (OCT2 [2]; human, pH 7.3): -12.5 ± 9.4
CN1CCN(CCCN2c3ccccc3Sc3ccccc32)CC1 [Perazine]	53.6 ± 3.6	92.0 ± 1.8	58.5 ± 2.8	65.9 ± 2.0	–
OCCN1CCN(CCCN2c3ccccc3Sc3ccc(C(F)(F)F)cc32)CC1 [Fluphenazine]	–	99.3 ± 0.4	39.3 ± 7.0	94.3 ± 3.3	–
N[C@@H]1C[C@H]1c1ccccc1 (racemic) [Tranylcypromine]	–	–	–	–	% Inhibition of OCT2-dependent MF uptake at 20 µM (mean ± SEM) (OCT2 [1]): 39.0 ± 3.3; % Inhibition of OCT2-dependent MF uptake at 200 µM (mean ± SEM) (OCT2 [1]): 79.1 ± 2.9; % Inhibition of OCT2-dependent MPP+ uptake at 20 µM (mean ± SEM) (OCT2 [2]): 27.8 ± 5.6; % Inhibition of OCT2-dependent MPP+ uptake at 200 µM (mean ± SEM) (OCT2 [2]): 54.7 ± 3.1
